According to patent US7138361B2, “Herbicidal heterocycles” (E. I. du Pont de Nemours and Company, priority 2000, dated 2006):

Experiments:
Type in all cases: in vivo
[1] = tested on: cocklebur (Xanthium strumarium); test: Test C preemergence; conditions: for Plant response rating (0 to 100), Cocklebur: Rate 500 g/ha, visual evaluation after 12 to 14 days
In short: (§1)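 Visual 0–100 rating vs controls (0 = no effect, 100 = complete control) at 12–14 d, greenhouse. Compounds in non-phytotoxic solvent + surfactant; pre: sprayed after seeding; post: 1–4-leaf plants, 2–18 cm.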

[2] = tested on: giant foxtail (Setaria faberii); test: Test C preemergence; conditions: for Plant response rating (0 to 100), Foxtail, Giant: Rate 500 g/ha, visual evaluation after 12 to 14 days
In short: as §1

kochia (Kochia scoparia) = test: Test C preemergence; conditions: for Plant response rating (0 to 100), Kochia: Rate 500 g/ha, visual evaluation after 12 to 14 days
In short: as §1

[3] = tested on: pigweed (Amaranthus retroflexus); test: Test C preemergence; conditions: for Plant response rating (0 to 100), Pigweed: Rate 500 g/ha, visual evaluation after 12 to 14 days
In short: as §1

[4] = tested on: woolly cupgrass (Eriochloa villosa); test: Test C preemergence; conditions: for Plant response rating (0 to 100), Cupgrass, Woolly: Rate 500 g/ha, visual evaluation after 12 to 14 days
In short: as §1

[5] = tested on: bermudagrass (Cynodon dactylon); test: Test C preemergence; conditions: for Plant response rating (0 to 100 where 0 is no effect and 100 is complete control), Bermudagrass: Rate 500 g/ha, visual evaluation after 12 to 14 days
In short: as §1

[6] = tested on: crabgrass (Digitaria sanguinalis); test: Test C preemergence; conditions: for Plant response rating (0 to 100), Crabgrass: Rate 500 g/ha, visual evaluation after 12 to 14 days
In short: as §1

soybean (Glycine max) = test: Test C preemergence; conditions: for Plant response rating (0 to 100), Soybean: Rate 500 g/ha, visual evaluation after 12 to 14 days
In short: as §1

[7] = tested on: Surinam grass (Brachiaria decumbens); test: Test C preemergence; conditions: for Plant response rating (0 to 100), Surinam grass: Rate 500 g/ha, visual evaluation after 12 to 14 days
In short: as §1

Nightshade = test: Test C preemergence; conditions: Rate 500 g/ha, visual evaluation after 12 to 14 days
corn (Zea mays) = test: Test B preemergence
In short: (§2)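 Preemergence: seeds planted and treated with test chemicals in non-phytotoxic solvent with surfactant; postemergence on plants 2–18 cm (1- to 4-leaf stage). Kept in greenhouse 13–15 days, then visually rated against controls on a 0 (no effect) to 100 (complete control) scale.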

[8] = tested on: velvetleaf (Abutilon theophrasti); test: Test B preemergence
In short: as §2

[9] = tested on: cocklebur (Xanthium strumarium); test: Test B preemergence
In short: as §2

[10] = tested on: morning glory (Ipomoea hederacea); test: Test B preemergence
In short: as §2

[11] = tested on: giant foxtail (Setaria faberii); test: Test B preemergence
In short: as §2

rice (Oryza saliva) = test: Test B preemergence
In short: as §2

[12] = tested on: barnyardgrass (Echinochloa crus-galli); test: Test B preemergence
In short: as §2

[13] = tested on: pigweed (Amaranthus retroflexus); test: Test B preemergence
In short: as §2

[14] = tested on: crabgrass (Digitaria sanguinalis); test: Test B preemergence
In short: as §2

[15] = tested on: Surinam grass (Brachiaria decumbens); test: Test B preemergence
In short: as §2

[16] = tested on: lambsquarters (Chenopodium album); test: Test B preemergence
In short: as §2

Sunflower = test: Test C preemergence; conditions: Rate 250 g/ha, scale 0 to 100, 0 no effect, 100 complete control
[17] = Rate 125 g/ha, scale 0 to 100, 0 no effect, 100 complete control
[18] = preemergence, Rate 62 g/ha, scale 0 to 100
[19] = preemergence, Rate 250 g/ha, scale 0 to 100, 0 no effect, 100 complete control
[20] = Preemergence, Rate 500 g/ha, scale 0 to 100, 0 no effect, 100 complete control
[21] = preemergence, Rate 125 g/ha, scale of 0 to 100 where 0 is no effect and 100 is complete control, 13 to 15 days

Cc1ccc(N2CCC(n3ccc(C(C)(C)C)n3)C2=O)cc1I (stereo not drawn) [Compound 122]
Plant response rating, Cocklebur [1, 17]: 0
Plant response rating, Cocklebur [1, 18]: 0
Plant response rating (0 to 100), Cocklebur ([1]; preemergence): 0
Plant response rating, Cocklebur [1, 19]: 0
Plant response rating, Foxtail, Giant [2, 17]: 0
Plant response rating, Foxtail, Giant [2, 18]: 0
Plant response rating (0 to 100), Foxtail, Giant ([2]; preemergence): 0
Plant response rating, Foxtail, Giant [2, 19]: 0
Plant response rating, Kochia (kochia (Kochia scoparia); [17]): 100
Plant response rating, Kochia (kochia (Kochia scoparia); [18]): 100
Plant response rating (0 to 100), Kochia (kochia (Kochia scoparia); preemergence): 100
Plant response rating, Kochia (kochia (Kochia scoparia); [19]): 100
Plant response rating, Pigweed [3, 17]: 20
Plant response rating, Pigweed [3, 18]: 0
Plant response rating (0 to 100), Pigweed ([3]; preemergence): 100
Plant response rating, Pigweed [3, 19]: 20
Plant response rating, Cupgrass, Woolly [4, 17]: 20
Plant response rating, Cupgrass, Woolly [4, 18]: 0
Plant response rating (0 to 100), Cupgrass, Woolly ([4]; preemergence): 100
Plant response rating, Cupgrass, Woolly [4, 19]: 100
Plant response rating, Bermudagrass [5, 17]: 100
Plant response rating, Bermudagrass [5, 18]: 100
Plant response rating (0 to 100 where 0 is no effect and 100 is complete control), Bermudagrass ([5]; preemergence): 100
Plant response rating, Bermudagrass [5, 19]: 100
Plant response rating, Crabgrass [6, 17]: 100
Plant response rating, Crabgrass [6, 18]: 90
Plant response rating (0 to 100), Crabgrass ([6]; preemergence): 100
Plant response rating, Crabgrass [6, 19]: 100
Plant response rating, Soybean (soybean (Glycine max); [17]): 0
Plant response rating, Soybean (soybean (Glycine max); [18]): 0
Plant response rating (0 to 100), Soybean (soybean (Glycine max); preemergence): 0
Plant response rating, Soybean (soybean (Glycine max); [19]): 0
Plant response rating, Surinam grass [7, 17]: 0
Plant response rating, Surinam grass [7, 18]: 0
Plant response rating (0 to 100), Surinam grass ([7]; preemergence): 60
Plant response rating, Surinam grass [7, 19]: 20
Plant response rating (0 to 100), Nightshade (Nightshade): 90
Plant response rating, Corn (corn (Zea mays); [20]): 0
Plant response rating, Corn (corn (Zea mays); [21]): 0
Plant response rating, Velvetleaf [8, 20]: 0
Plant response rating, Velvetleaf [8, 21]: 0
Plant response rating, Cocklebur [9, 20]: 0
Plant response rating, Cocklebur [9, 21]: 0
Plant response rating, Morningglory [10, 20]: 0
Plant response rating, Morningglory [10, 21]: 0
Plant response rating, Foxtail, Giant [11, 20]: 30
Plant response rating, Foxtail, Giant [11, 21]: 20
Plant response rating, Rice (rice (Oryza saliva); [20]): 0
Plant response rating, Rice (rice (Oryza saliva); [21]): 0
Plant response rating, Barnyardgrass [12, 20]: 100
Plant response rating, Barnyardgrass [12, 21]: 0
Plant response rating, Pigweed [13, 20]: 100
Plant response rating, Pigweed [13, 21]: 100
Plant response rating, Crabgrass [14, 20]: 100
Plant response rating, Crabgrass [14, 21]: 100
Plant response rating, Surinam grass [15, 20]: 70
Plant response rating, Surinam grass [15, 21]: 50
Plant response rating, Lambsquarters [16, 20]: 100
Plant response rating, Lambsquarters [16, 21]: 100
Plant response rating, Sunflower (Sunflower): 0

CCC(C)Oc1cccc(N2CCC(n3ccc(C(C)(C)C)n3)C2=O)c1 (stereo not drawn) [Compound 127]
Plant response rating, Cocklebur [1, 17]: 0
Plant response rating, Cocklebur [1, 18]: 0
Plant response rating (0 to 100), Cocklebur ([1]; preemergence): 20
Plant response rating, Cocklebur [1, 19]: 0
Plant response rating, Foxtail, Giant [2, 17]: 0
Plant response rating, Foxtail, Giant [2, 18]: 0
Plant response rating (0 to 100), Foxtail, Giant ([2]; preemergence): 100
Plant response rating, Foxtail, Giant [2, 19]: 100
Plant response rating, Kochia (kochia (Kochia scoparia); [17]): 0
Plant response rating, Kochia (kochia (Kochia scoparia); [18]): 0
Plant response rating (0 to 100), Kochia (kochia (Kochia scoparia); preemergence): 0
Plant response rating, Kochia (kochia (Kochia scoparia); [19]): 0
Plant response rating, Pigweed [3, 17]: 0
Plant response rating, Pigweed [3, 18]: 0
Plant response rating (0 to 100), Pigweed ([3]; preemergence): 0
Plant response rating, Pigweed [3, 19]: 0
Plant response rating, Cupgrass, Woolly [4, 17]: 50
Plant response rating, Cupgrass, Woolly [4, 18]: 0
Plant response rating (0 to 100), Cupgrass, Woolly ([4]; preemergence): 100
Plant response rating, Cupgrass, Woolly [4, 19]: 90
Plant response rating, Bermudagrass [5, 17]: 100
Plant response rating, Bermudagrass [5, 18]: 90
Plant response rating (0 to 100 where 0 is no effect and 100 is complete control), Bermudagrass ([5]; preemergence): 100
Plant response rating, Bermudagrass [5, 19]: 100
Plant response rating, Crabgrass [6, 17]: 70
Plant response rating, Crabgrass [6, 18]: 50
Plant response rating (0 to 100), Crabgrass ([6]; preemergence): 100
Plant response rating, Crabgrass [6, 19]: 100
Plant response rating, Soybean (soybean (Glycine max); [17]): 0
Plant response rating, Soybean (soybean (Glycine max); [18]): 0
Plant response rating (0 to 100), Soybean (soybean (Glycine max); preemergence): 0
Plant response rating, Soybean (soybean (Glycine max); [19]): 0
Plant response rating, Surinam grass [7, 17]: 0
Plant response rating, Surinam grass [7, 18]: 0
Plant response rating (0 to 100), Surinam grass ([7]; preemergence): 100
Plant response rating, Surinam grass [7, 19]: 20
Plant response rating (0 to 100), Nightshade (Nightshade): 100
Plant response rating, Corn (corn (Zea mays); [20]): 0
Plant response rating, Corn (corn (Zea mays); [21]): 0
Plant response rating, Velvetleaf [8, 20]: 0
Plant response rating, Velvetleaf [8, 21]: 0
Plant response rating, Cocklebur [9, 20]: 0
Plant response rating, Cocklebur [9, 21]: 0
Plant response rating, Morningglory [10, 20]: 0
Plant response rating, Morningglory [10, 21]: 0
Plant response rating, Foxtail, Giant [11, 20]: 100
Plant response rating, Foxtail, Giant [11, 21]: 70
Plant response rating, Rice (rice (Oryza saliva); [20]): 50
Plant response rating, Rice (rice (Oryza saliva); [21]): 0
Plant response rating, Barnyardgrass [12, 20]: 100
Plant response rating, Barnyardgrass [12, 21]: 0
Plant response rating, Pigweed [13, 20]: 100
Plant response rating, Pigweed [13, 21]: 0
Plant response rating, Crabgrass [14, 20]: 100
Plant response rating, Crabgrass [14, 21]: 100
Plant response rating, Surinam grass [15, 20]: 70
Plant response rating, Surinam grass [15, 21]: 0
Plant response rating, Lambsquarters [16, 20]: 100
Plant response rating, Lambsquarters [16, 21]: 90
Plant response rating, Sunflower (Sunflower): 0
